Source: US11655239B2 (SHANGHAI INSTITUTE OF MATERIAL MEDICA, CHINESE ACADEMY OF …, priority 2019, dated 2023)

Legend:
Assay type in all cases: biochemical
Flt-3 = Flt-3 (Homo sapiens (Human), UniProt P36888); experiment: Enzyme selectivity test (ELISA), Flt-3
Method: (§1) 1) Enzyme reaction substrate Poly(Glu, Tyr) 4:1 was diluted to 20 μg/mL with potassium-free PBS (10 mM sodium phosphate buffer, 150 mM NaCl, pH 7.2-7.4), and the microtiter plate was coated with 125 μL/well and placed at 37° C. for 12-16 hours of reaction. The liquid in the well was discard. The plate was washed three times with T-PBS (potassium-free PBS containing 0.1% Tween-20, 200 μL/well), 5 minutes each time. The ELISA plate was dried in an oven at 37° C. for 1 to 2 hours.
(§2) 2) Reaction buffer (50 mM HEPES pH 7.4, 50 mM MgCl2, 0.5 mM MnCl2, 0.2 mM Na3VO4, 1 mM DTT) diluted ATP solution (49 μL) was added to each well, 1 μL of the compound to be tested was added to each well, and then 50 μL of DDR2 kinase domain recombinant protein diluted in the reaction buffer was added to start the reaction. Two control wells without ATP were set in each experiment. The plate placed on a shaker (100 rpm) at 37° C. for 1 hour of reaction. The liquid in the well was discarded and the plate was washed three times with T-PBS.
(§3) 3) Antibody PY99 dilution solution (the antibody was diluted 1:500 with T-PBS containing BSA 5 mg/mL) was added at 100 μL/well, and shaken on a shaker at 37° C. for 0.5 hour of reaction. The liquid in the well was discarded and the plate was washed three times with T-PBS.
(§4) 4) Horseradish peroxidase labeled goat anti-murine secondary antibody dilution solution (the antibody is diluted 1:2000 with T-PBS containing BSA 5 mg/ml) was added at 100 μL/well, and shaken on a shaker at 37° C. for 0.5 hour of reaction. The liquid in the well was discarded and the plate was washed three times with T-PBS.
(§5) 5) 2 mg/ml of OPD color developing solution [diluted with 0.1 M citric acid-sodium citrate buffer (pH=5.4) containing 0.03% H2O2] was added at 100 μL/well and reacted for 1 to 10 minutes at 25° C. in the dark.
(§6) 6) 2M H2SO4 was added at 50 μL/well to stop the reaction, and a tunable wavelength microplate reader VERSAmax was used for reading at a wavelength of 490 nm.
(§7) The IC50 value was obtained by four-parameter regression using the software that came with the microplate reader. […]

EPH-A2 = EPH-A2 (Homo sapiens (Human), UniProt P29317); experiment: Enzyme selectivity test (ELISA), EPH-A2
EPH-A2, sequence (P29317 24-976, species assumed): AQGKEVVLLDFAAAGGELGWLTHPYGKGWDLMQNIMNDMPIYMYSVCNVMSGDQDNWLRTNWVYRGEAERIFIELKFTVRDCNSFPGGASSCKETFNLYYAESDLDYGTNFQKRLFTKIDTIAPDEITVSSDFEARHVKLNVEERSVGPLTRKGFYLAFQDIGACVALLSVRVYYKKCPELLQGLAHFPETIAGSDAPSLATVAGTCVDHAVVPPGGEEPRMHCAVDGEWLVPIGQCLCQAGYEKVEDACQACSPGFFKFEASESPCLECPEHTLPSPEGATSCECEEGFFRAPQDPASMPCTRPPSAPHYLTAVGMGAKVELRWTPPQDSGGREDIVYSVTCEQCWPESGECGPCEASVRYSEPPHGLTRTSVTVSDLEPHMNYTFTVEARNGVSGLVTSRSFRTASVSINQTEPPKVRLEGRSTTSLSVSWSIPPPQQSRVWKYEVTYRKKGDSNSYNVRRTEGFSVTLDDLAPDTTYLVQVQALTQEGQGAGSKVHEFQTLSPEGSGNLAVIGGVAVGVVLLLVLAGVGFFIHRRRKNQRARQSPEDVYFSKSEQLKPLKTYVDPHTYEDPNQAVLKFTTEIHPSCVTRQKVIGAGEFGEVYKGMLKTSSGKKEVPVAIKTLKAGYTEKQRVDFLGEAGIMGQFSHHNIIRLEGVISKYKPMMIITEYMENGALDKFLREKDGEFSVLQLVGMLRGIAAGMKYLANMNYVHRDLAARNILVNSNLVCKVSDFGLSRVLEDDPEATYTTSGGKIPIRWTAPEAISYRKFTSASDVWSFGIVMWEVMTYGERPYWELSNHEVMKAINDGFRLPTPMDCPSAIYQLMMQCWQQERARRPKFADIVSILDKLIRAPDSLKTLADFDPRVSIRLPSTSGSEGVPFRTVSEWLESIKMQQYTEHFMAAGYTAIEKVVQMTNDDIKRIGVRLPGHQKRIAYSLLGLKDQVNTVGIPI
Method: as §1, §2, §3, §4, §5, §6, §7

PDGFR-β = PDGFR-β (Homo sapiens (Human), UniProt P09619); experiment: Enzyme selectivity test (ELISA), PDGFR-β
PDGFR-β, sequence (P09619 33-1106, species assumed): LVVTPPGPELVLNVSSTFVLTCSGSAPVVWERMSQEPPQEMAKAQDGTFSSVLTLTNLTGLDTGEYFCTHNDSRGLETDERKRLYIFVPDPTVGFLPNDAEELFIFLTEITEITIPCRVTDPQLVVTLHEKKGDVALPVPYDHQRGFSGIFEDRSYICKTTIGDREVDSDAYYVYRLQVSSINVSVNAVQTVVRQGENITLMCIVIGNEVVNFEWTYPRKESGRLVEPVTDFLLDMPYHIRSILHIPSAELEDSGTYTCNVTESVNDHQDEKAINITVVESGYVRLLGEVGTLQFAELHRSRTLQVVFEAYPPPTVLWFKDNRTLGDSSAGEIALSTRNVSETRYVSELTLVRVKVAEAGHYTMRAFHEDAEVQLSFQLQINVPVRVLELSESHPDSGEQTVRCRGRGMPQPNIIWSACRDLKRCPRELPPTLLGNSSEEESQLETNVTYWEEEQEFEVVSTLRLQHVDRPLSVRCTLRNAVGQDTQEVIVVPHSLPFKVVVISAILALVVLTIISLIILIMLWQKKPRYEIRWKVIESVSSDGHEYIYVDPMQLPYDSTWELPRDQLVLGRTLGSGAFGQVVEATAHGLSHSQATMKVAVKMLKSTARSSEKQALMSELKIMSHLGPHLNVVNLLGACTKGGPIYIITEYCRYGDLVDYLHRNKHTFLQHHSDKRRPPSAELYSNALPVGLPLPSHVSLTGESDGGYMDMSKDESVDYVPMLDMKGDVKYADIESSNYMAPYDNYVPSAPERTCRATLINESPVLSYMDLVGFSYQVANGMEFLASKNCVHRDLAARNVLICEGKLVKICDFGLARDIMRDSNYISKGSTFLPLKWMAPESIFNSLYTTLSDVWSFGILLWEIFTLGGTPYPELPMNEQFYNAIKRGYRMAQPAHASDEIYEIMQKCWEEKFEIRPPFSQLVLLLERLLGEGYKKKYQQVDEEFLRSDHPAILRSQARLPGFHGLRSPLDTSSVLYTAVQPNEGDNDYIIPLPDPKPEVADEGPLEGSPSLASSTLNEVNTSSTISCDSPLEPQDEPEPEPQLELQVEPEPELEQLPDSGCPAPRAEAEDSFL
Method: as §1, §2, §3, §4, §5, §6, §7

KDR = KDR (Homo sapiens (Human), UniProt P35968); experiment: Enzyme selectivity test (ELISA), KDR
KDR, sequence (P35968 20-1356, species assumed): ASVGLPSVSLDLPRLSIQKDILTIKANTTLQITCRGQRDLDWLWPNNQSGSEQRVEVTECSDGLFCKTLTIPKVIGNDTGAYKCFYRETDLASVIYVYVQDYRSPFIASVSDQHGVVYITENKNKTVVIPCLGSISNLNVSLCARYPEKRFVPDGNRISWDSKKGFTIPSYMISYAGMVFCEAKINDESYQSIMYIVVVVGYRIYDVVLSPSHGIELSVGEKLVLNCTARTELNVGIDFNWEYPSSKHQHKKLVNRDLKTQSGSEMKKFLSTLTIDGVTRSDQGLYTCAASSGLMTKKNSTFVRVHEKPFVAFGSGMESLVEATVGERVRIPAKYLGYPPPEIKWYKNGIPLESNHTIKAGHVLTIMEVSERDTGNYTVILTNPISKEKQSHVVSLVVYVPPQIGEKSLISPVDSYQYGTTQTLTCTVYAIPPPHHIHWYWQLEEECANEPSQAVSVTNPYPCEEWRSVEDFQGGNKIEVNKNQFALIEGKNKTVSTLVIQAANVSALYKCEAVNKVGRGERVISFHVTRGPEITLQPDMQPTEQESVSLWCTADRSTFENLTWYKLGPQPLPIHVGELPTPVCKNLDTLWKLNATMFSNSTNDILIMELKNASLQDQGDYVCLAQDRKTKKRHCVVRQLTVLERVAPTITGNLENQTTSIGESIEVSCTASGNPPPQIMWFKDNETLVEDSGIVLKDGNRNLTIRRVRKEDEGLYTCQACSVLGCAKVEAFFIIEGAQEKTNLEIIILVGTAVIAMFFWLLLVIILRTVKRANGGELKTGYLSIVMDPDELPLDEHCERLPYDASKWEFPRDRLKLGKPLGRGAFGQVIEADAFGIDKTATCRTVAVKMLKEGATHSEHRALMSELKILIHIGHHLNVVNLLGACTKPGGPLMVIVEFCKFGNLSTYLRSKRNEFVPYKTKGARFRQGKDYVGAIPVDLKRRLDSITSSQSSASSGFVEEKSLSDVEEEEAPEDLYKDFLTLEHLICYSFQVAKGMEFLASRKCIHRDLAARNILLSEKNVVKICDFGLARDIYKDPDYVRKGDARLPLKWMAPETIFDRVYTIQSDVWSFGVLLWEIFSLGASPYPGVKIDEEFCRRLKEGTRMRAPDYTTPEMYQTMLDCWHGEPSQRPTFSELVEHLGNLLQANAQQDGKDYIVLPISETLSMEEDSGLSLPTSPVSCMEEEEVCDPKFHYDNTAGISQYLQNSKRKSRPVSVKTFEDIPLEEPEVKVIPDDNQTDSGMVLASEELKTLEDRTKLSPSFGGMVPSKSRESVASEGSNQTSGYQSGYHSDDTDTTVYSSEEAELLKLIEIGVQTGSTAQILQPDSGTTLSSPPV
Method: as §1, §2, §3, §4, §5, §6, §7

Flt-3, sequence (P36888 27-993, species assumed): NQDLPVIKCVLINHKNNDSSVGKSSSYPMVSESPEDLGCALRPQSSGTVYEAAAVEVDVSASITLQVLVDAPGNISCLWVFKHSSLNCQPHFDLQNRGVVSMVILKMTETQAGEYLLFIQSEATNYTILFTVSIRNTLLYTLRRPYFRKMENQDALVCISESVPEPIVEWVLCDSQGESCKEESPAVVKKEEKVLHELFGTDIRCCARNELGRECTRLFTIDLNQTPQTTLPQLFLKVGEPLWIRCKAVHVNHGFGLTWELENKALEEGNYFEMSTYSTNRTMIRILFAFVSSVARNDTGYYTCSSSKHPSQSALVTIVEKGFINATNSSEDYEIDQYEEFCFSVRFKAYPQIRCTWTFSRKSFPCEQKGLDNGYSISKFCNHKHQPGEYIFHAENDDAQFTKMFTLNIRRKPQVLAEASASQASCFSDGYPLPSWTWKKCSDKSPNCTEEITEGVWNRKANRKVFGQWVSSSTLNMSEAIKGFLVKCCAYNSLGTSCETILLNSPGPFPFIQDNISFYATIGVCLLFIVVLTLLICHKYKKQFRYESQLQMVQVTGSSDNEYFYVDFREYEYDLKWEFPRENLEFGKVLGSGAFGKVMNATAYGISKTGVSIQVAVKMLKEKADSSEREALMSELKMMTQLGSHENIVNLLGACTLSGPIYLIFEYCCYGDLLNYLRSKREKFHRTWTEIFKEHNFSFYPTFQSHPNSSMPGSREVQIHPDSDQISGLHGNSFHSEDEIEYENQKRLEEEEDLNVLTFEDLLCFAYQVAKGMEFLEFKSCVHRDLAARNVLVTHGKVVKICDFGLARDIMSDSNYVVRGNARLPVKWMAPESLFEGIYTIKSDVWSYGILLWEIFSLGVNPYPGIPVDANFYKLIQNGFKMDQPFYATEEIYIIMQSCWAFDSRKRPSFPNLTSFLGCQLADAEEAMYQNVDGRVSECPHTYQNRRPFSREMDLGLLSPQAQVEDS

Q: With `O=C(Nc1cccc(C(F)(F)F)c1)c1ccc(C2CC2)c(-c2ccc3nc(Nc4cnn(C5CC5)c4)ncc3c2)c1` [Compound S15, 4-cyclopropyl-3-(2-((1-cyclopropyl-1H-pyrazol-4-yl)amino)quinazolin-6-yl)-N-(3-(trifluoromethyl)phenyl)benzamide] as the molecule, how does the IC50 (Flt-3) read?
A: > 1000 nM

Q: What about the IC50 (EPH-A2) of the same molecule?
A: > 10 nM

Q: What about the IC50 (PDGFR-β) of the same molecule?
A: > 1000 nM

Q: And the IC50 (KDR)?
A: < 10 nM
